Assay results reported in patent publication US20080249144A1, “Preventive or Therapeutic Agent for Chronic Inflammatory Lung Disease” (KAKEN PHARMACEUITICAL CO., LTD., priority 2004, published 2008).

Key:
[1] = KP-496 concentration in the mouse lung tissue after inhalation; format: in vivo, mice; details: after 30 min inhalation of nebulized KP-496 solution (0.5 w/v %)
Description: Seven-week old C57BL-strain male mice were was used. The mouse was allowed to inhale nebulized KP-496 for 30 min. through a nasal cavity to the lung tissue in the same manner as in Example 2. After completion of the inhalation, the mouse was killed by exsanguination under anaesthesia with pentobarbital. Immediately after that, the lung was excised out, weighed and freezed at −80° C. to store. A 4-fold volume of phosphate buffer was added to the lung homogenized and measured with LC-MS. The number of animals was five.

[2] = test system: murine model of BLM-induced pulmonary fibrosis; assay: BLM-induced pulmonary fibrosis model in mice; format: in vivo
Description: Bleomycin chloride (BLM) was dissolved in a physiological saline solution (saline). BLM was intravenously administered to 10-week-old ICR-strain male mice once in a dose of […] to induce disease. To a non-BLM administration group, saline was administered, instead. KP-496 was administered by inhalation twice a day from the initiation date of BLM administration to the day before autopsy. To describe in brief, a mouse housed in a polyethylene container under unrestrained conditions was allowed to spontaneously inhale a mist state of KP-496 solution (0.5 w/v %) nebulized by a nebulizer for 30 minutes. Furthermore, the vehicle (saline) for KP-496 was administered by inhalation to a control group, in the same manner. A group consisted of 8 animals.
On the 7th day or 21st day after administration of BLM, the mouse was killed by exsanguinations under anaesthesia with pentobarbital. Immediately after that, BAL of the right lung alone was done. BAL fluid (BALF) was centrifuged and the supernatant was removed, and thereafter, precipitated cells were resuspended in saline. The total number of cells was determined by use of a particle counter analyzer. Furthermore, using the remaining cell suspension solution, a smear sample of cells was prepared and stained with Giemsa. The cells were classified according to the cell type. Based on the percentages of cell types, the numbers of classified cells were calculated.
After BAL, the right lung was lyophilized. The content of hydroxyproline in the lung tissue was measured in accordance with the KISO method using chloramine T (Inayama et al., Keio J. Med., 27: 43 (1978)).
After BAL, the left lung was fixed in 10 vol % neutral-buffered formalin solution. Thereafter, a paraffin section was prepared in a general way, stained with H. E. and azan and subjected to histopathologic examination of the lung. When an abnormality was observed, the degree of the abnormality was arbitrarily evaluated under blind conditions and scored based on the following 4 stages:
0: No abnormality is observed
1: Pathologic lesion is locally observed in a limited area of a sample
2: Pathologic lesion is observed about a ⅓ region of a sample
3: Pathologic lesion is observed about a ½ region of a sample
4: Pathologic lesion is observed in substantially the entire region of a sample.
The average value and standard deviation of each group were obtained. Comparison between two groups, that is, between BLM administration/vehicle group and BLM administration/KP-496 group or a saline administration/vehicle group, was performed with the Student's t-test. Furthermore, histopathologic lesion scores were evaluated by the Mann-Whitney test. The significance level (P) was set at […].

[3] = test system: vanadium pentoxide-induced bronchitis model; assay: Vanadium pentoxide-induced bronchitis model in mice; format: in vivo; details: 7 days after vanadium pentoxide; compared with control
Description: Seven-week old C57BL strain male mice were used. The mouse was anaesthetized with isoflurane. Vanadium pentoxide (20 μg) was administered once to the lung through a cannula inserted into the trachea through the pharyngolarynx to induce pathology. To a non-vanadium pentoxide administration group (normal group), saline was administered, instead. KP-496 was administered by inhalation twice a day in the period from the vanadium pentoxide administration date to the day before autopsy, in the same manner as in Example 2. Furthermore, the normal group and the control group were allowed to spontaneously inhale saline in the same manner. A medicament for use in comparison, prednisolone, was orally administered at a dose of 5 mg/kg twice a day in the period from the vanadium pentoxide administration date to the day before autopsy. Note that the normal group consisted of 6 animals and the other group consisted of 10 animals. Each of the mice was anaesthetized with pentobarbital 7 days after vanadium pentoxide administration and killed by bloodletting from the abdominal aorta. The lung was excised out and fixed in 10 vol % neutral buffered formalin solution. […] The obtained value was divided by the circumferential length of the bronchial lumen (obtained in mucosal basal membrane) and the quotient was expressed as a mucus producing region area per millimeter of the bronchus. […]

[4] = 7th day after BLM, inhalation twice a day
[5] = 21st day after BLM, inhalation twice a day

Question: Which results are given for `CC(C)c1csc(COc2cccc(CN(CCCCNS(=O)(=O)c3ccc(Cl)cc3)S(=O)(=O)c3ccccc3C(=O)O)c2)n1` [KP-496, 2-{N-[4-(4-chlorobenzenesulfonylamino)butyl]-N-{3-[(4-isopropyl-2-thiazolyl)methoxy]benzyl}}sulfamoylbenzoic acid]?
Answer: content of KP-496 in murine lung [1]: 418 ± 114 ng; hydroxyproline content of the right lung lobe ([2]; 7th day after BLM): 129.9 ± 11.35 µg; total number of cells in BALF ([2]; 7th day after BLM, KP-496 0.5 w/v % inhalation twice a day): 0.6±0.29 ×10^5 cells; number of alveolar macrophages in BALF [2, 4]: 0.6±0.27 ×10^5 cells; number of eosinophils in BALF [2, 4]: 0.3±0.68 ×10^3 cells; number of lymphocytes in BALF [2, 4]: 0.1±0.09 ×10^4 cells; number of neutrophils in BALF [2, 4]: 0.2±0.11 ×10^4 cells; histopathologic score of acute inflammation, left lung ([2]; 7th day after BLM, score 0-4): 1.0±0.76; hydroxyproline content of the right lung lobe ([2]; 21st day after BLM): 138.0 ± 9.93 µg; number of alveolar macrophages in BALF [2, 5]: 0.7±0.23 ×10^5 cells; number of eosinophils in BALF [2, 5]: 0.1±0.21 ×10^3 cells; number of lymphocytes in BALF [2, 5]: 0.3±0.10 ×10^4 cells; number of neutrophils in BALF [2, 5]: 0.02±0.02 ×10^4 cells; total number of cells in BALF [2, 5]: 0.8±0.24 ×10^5 cells; histopathologic score of chronic inflammation, left lung ([2]; 21st day after BLM, score 0-4): 1.0±0.76; histopathologic score of fibrogenesis, left lung ([2]; 21st day after BLM, score 0-4): 0.6±0.52; increase of PAS positive area (mucus producing region of intrapulmonary bronchial epithelium) [3]: significantly suppressed
